Assays:
[1] = Dissociation constant determination of peptide-Tb^3+ complexes by Tb^3+ luminescence titration; assay type: binding
Procedure: (§1) All experiments were conducted on a Photon Technology International fluorescence spectrometer model QM-3/2003 with a CW source and a Hamamatsu R928PMT using 10 nm excitation and emission slit widths. A 495 nm highpass filter (model 495FG03-25 AM-53074; Andover Corporation) was used on the emission monochromator. Spectra were acquired at room temperature with a scan rate of 1 nm per second. In dissociation constant determinations, the observed luminescence (photon counts s^−1) was not background-corrected and represents the raw fluorescence data. In the presence of buffer only (no peptide, no metal), the luminescence at 544 nm is similar to the luminescence observed in the presence of peptide at the limit of low concentrations of Tb^3+ (approximately 1.8×10^5 photon counts s^−1). Spectral data (FIGS. 3a, […]) represent the average of at least three independent trials and correspond to the averaged spectra that yielded the data points at the given Tb^3+ concentrations in the dissociation constant determination plots. Spectral data in the manuscript were background-corrected. Peptide solutions were prepared by the dilution of peptide stock solutions into buffer containing 5 mM HEPES (pH 7.8) and 100 mM NaCl (final concentrations). Spectra were acquired in 10 mm quartz fluorescence cells (Starna). Tb^3+ titrations were conducted by dilution of a Tb^3+ solution into a peptide solution. All TbCl3 solutions were standardized by titration with a standard solution of EDTA (1 mM) in the presence of xylenol orange indicator (10 μM) and sodium acetate buffer (pH 6.0, 10 mM). EDTA (1 mM) was added to 500 μL of a 1 mM Tb^3+ solution diluted from a 10 mM stock until the end point was reached; Tb^3+ concentration was determined based on 1:1 binding. Each individual emission spectrum represents an independently prepared solution of peptide and metal. The Tb^3+ emission band at 544 nm was used to evaluate metal binding.
To determine dissociation constants for Tb^3+-peptide complexes, Tb^3+ titrations were conducted in solutions of 5 mM HEPES (pH 7.8) and 100 mM NaCl. Each data point represents an independently prepared solution of peptide and metal. Observed luminescence (photon counts s^−1) at the emission maximum of 544 nm were plotted against Tb^3+ concentration to calculate the final Kd. Data points indicate the average of at least three independent titrations. Error bars indicate standard error. […] The quadratic equation solution to the dissociation constant (equation 1) was employed to generate an accurate solution to the binding equilibrium under conditions when the dissociation constant, peptide concentration, and metal concentration may be similar. For phosphorylated pKID-pTyr11, the dissociation constant was also measured in the presence of 2 mM Mg^2+ and 100 μM Ca^2+ to study the effect of these metals on Tb^3+-peptide complex formation.

[2] = Terbium luminescence spectra of non-phosphorylated versus phosphorylated peptides; conditions: 10 μM peptide, 10 mM HEPES (pH 7.8), 100 mM NaCl, excitation 280 nm
Procedure: FIGS. 3a, 3e and 3f show the luminescence spectra of 10 μM non-phosphorylated (red) and phosphorylated (blue) (a) pKID-pTyr11, (e) pKID-pTyr15a, and (f) pKID-pTyr15b, in the presence of (a, f) 20 μM Tb^3+ or (e) 80 μM Tb^3+. Experiments were conducted in water with 10 mM HEPES (pH 7.8) and 100 mM NaCl with excitation at 280 nm. […] The fold luminescence differentiation between non-phosphorylated and phosphorylated peptides depends on the relative Tb^3+ affinities of the peptides and on the Tb^3+ concentration. FIGS. 3b, 3c, and 3d show the TOCSY spectra of phosphorylated pKID-pTyr11 in the absence (red) and presence (blue) of La^3+ indicating metal-induced peptide folding: (b) H^N—Hα region; (c) H^N—Hβ region; (d) aromatic region.
as §1, with “Peptide solutions were prepared by the dilution of peptide stock solutions into buffer containing 5 mM HEPES (pH 7.8) and 100 mM NaCl (final concentrations).” left out, “Tb^3+ titrations were conducted by dilution of a Tb^3+ solution into a peptide solution. All TbCl3 solutions were standardized by titration with a standard solution of EDTA (1 mM) in the presence of xylenol orange indicator (10 μM) and sodium acetate buffer (pH 6.0, 10 mM).” left out, “Each individual emission spectrum represents an independently prepared solution of peptide and metal. The Tb^3+ emission band at 544 nm was used to evaluate metal binding.” left out

[3] = peptide-Tb^3+ complex, 10 μM peptide, 5 mM HEPES (pH 7.8), 100 mM NaCl
[4] = 10 μM peptide, footnote a: calculated by defining maximum luminescence as equal to that of the phosphorylated peptide-Tb^3+ complex (no saturation)

Ac-DKDGDGWISPAAAKpYAK-NH2 [phosphorylated pKID-pTyr15b]
Kd [1, 3]: 47 ± 5 µM | fold greater luminescence of phosphorylated than non-phosphorylated peptide ([2]; 20 μM Tb^3+): 10.1 fold

Ac-DKNADGWIDAApYK-NH2 [phosphorylated pKID-pTyr12]
Kd [1, 3]: 209 ± 32 µM

Ac-DKNADGWIDAAYK-NH2 [non-phosphorylated pKID-pTyr12, control peptide with Tyr at residue 12]
Kd [1, 3]: 6470 µM

Ac-DKNADGWIDAAAAKYAK-NH2 [non-phosphorylated pKID-pTyr15a]
Kd [1, 4]: 3200 µM

Ac-DKNADGWIDAAAAKpYAK-NH2 [phosphorylated pKID-pTyr15a]
Kd [1, 3]: 217 ± 21 µM | fold greater luminescence of phosphorylated than non-phosphorylated peptide ([2]; 80 μM Tb^3+): 17.6 fold

DKNADGWIDAAEK [EF Hand-E12, EF Hand consensus peptide with Glu at residue 12, reference compound]
Kd [1, 3]: 88 ± 8 µM

Ac-DKNADGWIDAYAK-NH2 [non-phosphorylated pKID-pTyr11, model tyrosine kinase-inducible domain peptide, Tyr at residue 11]
Kd [1, 3]: 1900 ± 280 µM

DKNADGWIDAEAK [EF Control-E11, control peptide with Glu at residue 11, reference compound]
Kd [1, 3]: 1820 ± 140 µM

Ac-DKDGDGWISPAAAKYAK-NH2 [non-phosphorylated pKID-pTyr15b]
Kd [1, 4]: 1930 µM

Ac-DKNADGWIDApYAK-NH2 [phosphorylated pKID-pTyr11, pY indicates phosphotyrosine]
Tb^3+ binding in the presence of competing metals ([1]; in the presence of 100 μM Ca^2+ and 2 mM Mg^2+): identical | Kd ([1]; peptide-Tb^3+ complex, 2 μM peptide with 2 mM Mg^2+ and 100 μM Ca^2+): 30 µM | Kd ([1]; peptide-Tb^3+ complex, 2 μM peptide, 5 mM HEPES (pH 7.8), 100 mM NaCl): 32 µM | Kd [1, 3]: 54 ± 9 µM | fold greater Tb^3+ affinity than the non-phosphorylated peptide ([1]; phosphorylated versus non-phosphorylated peptide): 35 fold | fold greater luminescence of phosphorylated than non-phosphorylated peptide ([2]; 20 μM Tb^3+): 6.4 fold
